Reference: patent US12077503B2, “Substituted cyclic amides and their use as herbicides” (FMC CORPORATION, priority 2015, dated 2024)

Assays:
Format in all cases: in vivo
[1] = test system: ragweed (common ragweed, Ambrosia elatior); experiment: Test A preemergence; conditions: Ambrosia artemisiifolia, pre-emergence, 240 h; for pest or weed control at 125 g/ha: 125 g ai/ha, preemergence, visual rating after approx. 10 d, 0 to 100 scale where 0 is no effect and 100 is complete control; for pest or weed control at 125 g/ha / pest or weed control at 31 g/ha: read-out: Plant response rating, Ragweed; for pest or weed control at 31 g/ha: 31 g ai/ha, 0 to 100 scale (0 no effect, 100 complete control)
In short: (§1)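 Preemergence directed soil spray on seeded pots, or postemergence application to plants 2–10 cm, one- to two-leaf. Solvent mixture non-phytotoxic, with surfactant. Scored ~10 d later, visually, 0–100 vs untreated.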

[2] = test system: ryegrass, Italian (Italian ryegrass, Lolium multiflorum); experiment: Test A preemergence; conditions: Lolium multiflorum, pre-emergence, 240 h; for pest or weed control at 125 g/ha: 125 g ai/ha, preemergence, visual rating after approx. 10 d, 0 to 100 scale where 0 is no effect and 100 is complete control; for pest or weed control at 125 g/ha / pest or weed control at 31 g/ha: read-out: Plant response rating, Ryegrass, Italian; for pest or weed control at 31 g/ha: 31 g ai/ha, 0 to 100 scale (0 no effect, 100 complete control)
In short: as §1

[3] = test system: pigweed (Amaranthus retroflexus); experiment: Test A preemergence; conditions: Amaranthus retroflexus, pre-emergence, 240 h; for pest or weed control at 125 g/ha: 125 g ai/ha, preemergence, visual rating after approx. 10 d, 0 to 100 scale where 0 is no effect and 100 is complete control; for pest or weed control at 125 g/ha / pest or weed control at 31 g/ha: read-out: Plant response rating, Pigweed; for pest or weed control at 31 g/ha: 31 g ai/ha, 0 to 100 scale (0 no effect, 100 complete control)
Kochia (Kochia scoparia) [4] = experiment: Test A preemergence; conditions: Bassia scoparia, pre-emergence, 240 h; for pest or weed control at 125 g/ha: 125 g ai/ha, preemergence, visual rating after approx. 10 d, 0 to 100 scale where 0 is no effect and 100 is complete control; for pest or weed control at 125 g/ha / pest or weed control at 31 g/ha: read-out: Plant response rating, Kochia; for pest or weed control at 31 g/ha: 31 g ai/ha, 0 to 100 scale (0 no effect, 100 complete control)
In short: as §1

[5] = test system: barnyardgrass (Echinochloa crus-galli); experiment: Test A preemergence; conditions: Echinochloa crus-galli, pre-emergence, 240 h; for pest or weed control at 125 g/ha: 125 g ai/ha, preemergence, visual rating after approx. 10 d, 0 to 100 scale where 0 is no effect and 100 is complete control; for pest or weed control at 125 g/ha / pest or weed control at 31 g/ha: read-out: Plant response rating, Barnyardgrass; for pest or weed control at 31 g/ha: 31 g ai/ha, 0 to 100 scale (0 no effect, 100 complete control)
In short: as §1

[6] = test system: ragweed (common ragweed, Ambrosia elatior); experiment: Test A postemergence; conditions: Ambrosia artemisiifolia, post-emergence, 240 h, read-out: Plant response rating, Ragweed; for pest or weed control at 125 g/ha: 125 g ai/ha, postemergence, visual injury after approximately 10 d, 0 to 100 scale (0 no effect, 100 complete control); for pest or weed control at 31 g/ha: Postemergence, 31 g ai/ha, visual injury after approx. 10 d, 0 to 100 scale, 0 no effect, 100 complete control
In short: as §1

[7] = test system: wheat (Triticum aestivum); experiment: Test A postemergence; conditions: Triticum aestivum, post-emergence, 240 h, read-out: Plant response rating, Wheat; for plant injury at 31 g/ha: Postemergence, 31 g ai/ha, visual injury after approx. 10 d, 0 to 100 scale, 0 no effect, 100 complete control
In short: as §1

[8] = test system: giant foxtail (Setaria faberii); experiment: Test A postemergence; conditions: Setaria faberi, post-emergence, 240 h, read-out: Plant response rating, Foxtail, Giant; for pest or weed control at 125 g/ha: 125 g ai/ha, postemergence, visual injury after approximately 10 d, 0 to 100 scale (0 no effect, 100 complete control); for pest or weed control at 31 g/ha: Postemergence, 31 g ai/ha, visual injury after approx. 10 d, 0 to 100 scale, 0 no effect, 100 complete control
In short: as §1

[9] = test system: ryegrass, Italian (Italian ryegrass, Lolium multiflorum); experiment: Test A postemergence; conditions: Lolium multiflorum, post-emergence, 240 h, read-out: Plant response rating, Ryegrass, Italian; for pest or weed control at 125 g/ha: 125 g ai/ha, postemergence, visual injury after approximately 10 d, 0 to 100 scale (0 no effect, 100 complete control); for pest or weed control at 31 g/ha: Postemergence, 31 g ai/ha, visual injury after approx. 10 d, 0 to 100 scale, 0 no effect, 100 complete control
In short: as §1

corn (Zea mays) = experiment: Test A postemergence; conditions: Zea mays, post-emergence, 240 h; for Corn plant response rating (crop injury, 0 = no effect, 100 = complete kill) at 125 g/ha: 125 g ai/ha, postemergence, visual injury after approximately 10 d, 0 to 100 scale (0 no effect, 100 complete control); for Corn plant response rating (crop injury, 0 = no effect, 100 = complete kill) at 31 g/ha: Postemergence, 31 g ai/ha, visual injury after approx. 10 d, 0 to 100 scale, 100 complete control
In short: as §1

[10] = test system: blackgrass (Alopecurus myosuroides); experiment: Test A postemergence; conditions: Alopecurus myosuroides, post-emergence, 240 h, read-out: Plant response rating, Blackgrass; for pest or weed control at 125 g/ha: 125 g ai/ha, postemergence, visual injury after approximately 10 d, 0 to 100 scale (0 no effect, 100 complete control); for pest or weed control at 31 g/ha: Postemergence, 31 g ai/ha, visual injury after approx. 10 d, 0 to 100 scale, 0 no effect, 100 complete control
In short: as §1

[11] = test system: pigweed (Amaranthus retroflexus); experiment: Test A postemergence; conditions: Amaranthus retroflexus, post-emergence, 240 h, read-out: Plant response rating, Pigweed; for pest or weed control at 125 g/ha: 125 g ai/ha, postemergence, visual injury after approximately 10 d, 0 to 100 scale (0 no effect, 100 complete control); for pest or weed control at 31 g/ha: Postemergence, 31 g ai/ha, visual injury after approx. 10 d, 0 to 100 scale, 0 no effect, 100 complete control
In short: as §1

[12] = test system: Galium (catchweed bedstraw, Galium aparine); experiment: Test A postemergence; conditions: Galium, post-emergence, 240 h, read-out: Plant response rating, Galium; for pest or weed control at 125 g/ha: 125 g ai/ha, postemergence, visual injury after approximately 10 d, 0 to 100 scale (0 no effect, 100 complete control); for pest or weed control at 31 g/ha: Postemergence, 31 g ai/ha, visual injury after approx. 10 d, 0 to 100 scale, 0 no effect, 100 complete control
In short: as §1

Kochia (Kochia scoparia) [13] = experiment: Test A postemergence; conditions: Bassia scoparia, post-emergence, 240 h, read-out: Plant response rating, Kochia; for pest or weed control at 125 g/ha: 125 g ai/ha, postemergence, visual injury after approximately 10 d, 0 to 100 scale (0 no effect, 100 complete control); for pest or weed control at 31 g/ha: Postemergence, 31 g ai/ha, visual injury after approx. 10 d, 0 to 100 scale, 0 no effect, 100 complete control
In short: as §1

[14] = test system: barnyardgrass (Echinochloa crus-galli); experiment: Test A postemergence; conditions: Echinochloa crus-galli, post-emergence, 240 h, read-out: Plant response rating, Barnyardgrass; for pest or weed control at 125 g/ha: 125 g ai/ha, postemergence, visual injury after approximately 10 d, 0 to 100 scale (0 no effect, 100 complete control); for pest or weed control at 31 g/ha: Postemergence, 31 g ai/ha, visual injury after approx. 10 d, 0 to 100 scale, 0 no effect, 100 complete control
In short: as §1

Row | SMILES | pest or weed control at 125 g/ha [1] | pest or weed control at 125 g/ha [2] | pest or weed control at 125 g/ha [3] | pest or weed control at 125 g/ha (Kochia (Kochia scoparia) [4]) | pest or weed control at 125 g/ha [5] | pest or weed control at 125 g/ha [6] | pest or weed control at 125 g/ha [8] | pest or weed control at 125 g/ha [9] | Corn plant response rating (crop injury, 0 = no effect, 100 = complete kill) at 125 g/ha (corn (Zea mays)) | pest or weed control at 125 g/ha [10] | pest or weed control at 125 g/ha [11] | pest or weed control at 125 g/ha [12] | pest or weed control at 125 g/ha (Kochia (Kochia scoparia) [13]) | pest or weed control at 125 g/ha [14] | pest or weed control at 31 g/ha ([1]; Preemergence) | pest or weed control at 31 g/ha ([2]; Preemergence) | pest or weed control at 31 g/ha ([3]; Preemergence) | pest or weed control at 31 g/ha (Kochia (Kochia scoparia) [4]; Preemergence) | pest or weed control at 31 g/ha ([5]; Preemergence) | pest or weed control at 31 g/ha [6] | also measured
1 | CS(=O)(=O)c1ccccc1NC(=O)[C@H]1C(=O)NC[C@@H]1c1ccc(OC(F)F)cc1 [Compound 787] | 70% | 0% | 50% | 80% | 20% | 50% | 20% | 20% | 0% | 0% | 60% | 60% | 60% | 30% |  |  |  |  |  |  | pest or weed control at 500 g/ha ([1]; 500 g ai/ha, Preemergence, visual injury vs untreated controls after approximately 10 d, read-out: Ragweed plant response rating (0 to 100 scale where 0 is no effect and 100 is complete control)): 70%; pest or weed control at 500 g/ha ([2]; 500 g ai/ha, Preemergence, visual injury vs untreated controls after approximately 10 d, read-out: Ryegrass, Italian plant response rating (0 to 100 scale where 0 is no effect and 100 is complete control)): 0%; pest or weed control at 500 g/ha ([3]; 500 g ai/ha, Preemergence, visual injury vs untreated controls after approximately 10 d, read-out: Pigweed plant response rating (0 to 100 scale where 0 is no effect and 100 is complete control)): 80%; pest or weed control at 500 g/ha (Kochia (Kochia scoparia) [4]; 500 g ai/ha, Preemergence, visual injury vs untreated controls after approximately 10 d, read-out: Kochia plant response rating (0 to 100 scale where 0 is no effect and 100 is complete control)): 90%; pest or weed control at 500 g/ha ([5]; 500 g ai/ha, Preemergence, visual injury vs untreated controls after approximately 10 d, read-out: Barnyardgrass plant response rating (0 to 100 scale where 0 is no effect and 100 is complete control)): 70%; plant injury at 125 g/ha ([7]; 125 g ai/ha, postemergence, visual injury after approximately 10 d, 0 to 100 scale (0 no effect, 100 complete control)): 0%
2 | C/C=C/C1CNC(=O)C1C(=O)Nc1cccc(F)c1F (stereo not drawn) [Compound 793] | 0% | 0% | 0% | 0% | 0% | 0% | 0% | 0% | 0% | 0% | 0% | 0% | 0% | 0% | 0% | 0% | 0% | 0% | 0% | 0% | plant injury at 31 g/ha [7]: 0%; pest or weed control at 31 g/ha [8]: 0%; pest or weed control at 31 g/ha [9]: 0%; Corn plant response rating (crop injury, 0 = no effect, 100 = complete kill) at 31 g/ha (corn (Zea mays)): 0%; pest or weed control at 31 g/ha [10]: 0%; pest or weed control at 31 g/ha [11]: 0%; pest or weed control at 31 g/ha [12]: 0%; pest or weed control at 31 g/ha (Kochia (Kochia scoparia) [13]): 0%; pest or weed control at 31 g/ha [14]: 0%
3 | CN1CC[C@@H](c2cccc(C(F)(F)F)c2)[C@H](C(=O)Nc2ccccc2F)C1=O [Compound 794] | 0% | 0% | 0% | 0% | 90% | 0% | 30% | 0% | 0% | 0% | 0% | 0% | 0% | 30% | 0% | 0% | 0% | 0% | 70% | 0% | plant injury at 31 g/ha [7]: 0%; pest or weed control at 31 g/ha [8]: 0%; pest or weed control at 31 g/ha [9]: 0%; Corn plant response rating (crop injury, 0 = no effect, 100 = complete kill) at 31 g/ha (corn (Zea mays)): 0%; pest or weed control at 31 g/ha [10]: 0%; pest or weed control at 31 g/ha [11]: 0%; pest or weed control at 31 g/ha [12]: 0%; pest or weed control at 31 g/ha (Kochia (Kochia scoparia) [13]): 0%; pest or weed control at 31 g/ha [14]: 0%
